From patent US20080241943A1, “Subnanomolar Precipitator of Thiophilic Metals” (The Scripps Research Institute, priority 2004, published 2008)

What was measured:
[1] = Heavy metal competitions (precipitation in the presence of other metal ions); assay type: physicochemical; conditions: mixtures containing Cu^2+
Method: (§1) Determination of solubility products (Ksp). Weight analysis (FIG. 2A): Ksp values were determined either by weighing the amount of precipitate 4a. Scale-up was required to provide sufficient material for analysis on conventional microbalances. The following procedure was used for this analysis: a 100 μL aliquot of a 200 mM stock of metal ion in water was incubated at room temperature with 2 mL of a 10 mM stock of ligand 3a in acetonitrile. After 10 minutes the precipitate was isolated by centrifugation for 5 min at 2,000×g, washed with acetonitrile (5 ml), methanol (5 ml) and dried in vacuo. Spectrophotometric analysis (FIG. 2B): A 10 μL aliquot of a 200 mM stock of metal ion in water was added to 200 μL of a 10 mM stock of ligand 3a in acetonitrile in a spin filter (Millipore). After 10 minutes at rt, the precipitate was removed by centrifugation at 2,000×g. Spectroscopic analysis of the supernatant was performed on a conventional microarray reader (PerSeptive Biosystems CytoFluor or Perkin Elmer HST 7000 plate reader).
Heavy metal competitions. A 167 μL aliquot of a 20 mM stock of metal ion in water was incubated at room temperature with 333 μL of a 10 mM stock of ligand 3a in acetonitrile. […] The supernatant was analyzed on a PerSeptive Biosystems CytoFluor or Perkin Elmer HST 7000 plate reader using excitation at 510 nm. […]

[2] = Thiophilic metal precipitation by ligand; assay type: physicochemical; conditions: for metal salt concentration at which precipitation was visually apparent: 10% aqueous CH3CN
Method: (§2) General procedure for thiophilic metal precipitation. A 10 μL aliquot of a 200 mM stock of metal ion in water was incubated at room temperature with 200 μL of a 10 mM stock of ligand 3a in CH3CN. Red precipitates from 3a appeared upon increasing the amount of water in the final reaction mixture to over 20% (v/v). The formation of these red precipitates provided an ideal tool for verification of sample quality. Red precipitates from 3a were readily removed by triturating the precipitate with acetonitrile.

[3] = Precipitation of free ligand from aqueous CH3CN; assay type: physicochemical; conditions: 10 mM 3a stock in CH3CN, room temperature
Method: as §2

[4] = Determination of solubility products (Ksp), reproducibility; assay type: physicochemical; conditions: concentrations 1 mM-0.1 μM, pH 3-10, temperature 0-50° C.
Method: as §1

[5] = Thiophilic metal precipitation by ligand, panel of metal ions; assay type: physicochemical; conditions: spectroscopic analyses; did not correlate with Ksp
Method: as §2

[6] = Determination of the extent of metal precipitation (vapor atomic absorption of supernatant); assay type: physicochemical; conditions: after reacting 6.7±0.01 mM Hg(OAc)2 with 6.7±0.01 mM 3a
Method: Determination of the extent of metal precipitation. An 167 μL aliquot of a 20 mM stock of Hg(OAc)2 in water was incubated at room temperature with 333 μL of a 10 mM stock of ligand 3 in CH3CN. Precipitation occurred immediately. After 5 minutes the sample was centrifuged for 5 min at 14,000×g. The supernatant was removed and an aliquot submitted to vapor atomic absorption analysis (Galbraith Laboratories, Knoxyille, Tenn.).

[7] = cited from earlier work

SMILES: S=C1SC(c2ccccc2)(c2ccccc2)c2ccccc21 [3a, 3,3-Diphenylbenzo[c]thiophene-1(3H)-thione]
- Cu^2+ tolerated in analysis of Hg^2+, Pb^2+ and Cd^2+ [1]: 500 equivalents
- metal salt concentration at which precipitation was visually apparent ([2]; CdCl2 added to 25 μM 3a): 50 µM
- metal salt concentration at which precipitation was visually apparent ([2]; Hg(OAc)2 added to 1 μM 3a): 2 µM
- metal salt concentration at which precipitation was visually apparent ([2]; Pb(OAc)2 added to 5 μM 3a): 10 µM
- amount of water in the final reaction mixture at which red precipitates from 3a appeared [3]: over 20 % (v/v)
- deviation of Ksp values [4]: ≤ 1%
- rate of precipitation (order of metal ions) [5]: Hg^2+>Pb^2+>Cd^2+>(Au^3+˜Cu^2+)>(Pd^2+˜Ni^2+)>(Co^2+˜Mo^2+˜Pt^2+)
- amount of Hg^2+ left in supernatant [6]: 0.58 ± 0.03 µM

SMILES: O=C(O)CN(CC(=O)O)c1ccc(-c2c3cc(F)c(=O)cc-3oc3cc(O)c(F)cc23)cc1OCCOc1cc([N+](=O)[O-])ccc1N(CC(=O)O)CC(=O)O [Fluo-5N]
- affinity to Cd^2+ relative to La^3+ ([7]; at 1 μM): O-fold
- affinity for La^3+ over Cd^2+ ([7]; at 100 μM): 2 fold

SMILES: CCCCCCCCCCc1ccc(C2(c3ccc(CCCCCCCCCC)cc3)SC(=S)c3ccccc32)cc1 [3b, 3,3-Bis(4-decylphenyl)benzo[c]thiophene-1(3H)-thione]
- induction time of precipitation ([2]; by Hg^2+): > 5 min
- induction time of precipitation ([2]; by Pb^2+): > 5 min
